Laboratory results from patent publication US9890175B2, “Taxane compound, and preparation method and use thereof” (JIANGSU TASLY DIYI PHARMACEUTICAL CO., LTD., priority 2013, dated 2018).
Where two headings read alike, the source gives them in different places.

Legend:
[1] = tested on: Hela cervical cancer; experiment: MTT proliferation inhibition, HeLa; assay type: cell-based; settings: Homo sapiens, read-out: Proliferation inhibition rate, HeLa Uterin cancer
From the text: (§1) 1. Cytotoxicity Assay Using Human Tumor Cell Lines
(§2) Paclitaxel was used as the positive drug.

[2] = tested on: MCF-7 breast cancer cells; experiment: MTT proliferation inhibition, MCF-7; assay type: cell-based; settings: Homo sapiens, MCF7, read-out: Proliferation inhibition rate, MCF-7 Breast cancer
From the text: as §1, §2

[3] = tested on: Du145 prostate cancer; experiment: MTT proliferation inhibition, Du145; assay type: cell-based; settings: Homo sapiens, DU-145, read-out: Proliferation inhibition rate, DU145 Prostate cancer
From the text: as §1, §2

[4] = tested on: LNCaP prostate cancer; experiment: MTT proliferation inhibition, LNCaP; assay type: cell-based; settings: Homo sapiens, read-out: Proliferation inhibition rate, LNCaP Prostate cancer
From the text: as §1, §2

[5] = tested on: breast cancer cell line MCF-7; experiment: IC50 on breast cancer cell line MCF-7; assay type: cell-based; settings: Homo sapiens, MCF7, 72 h, read-out: MCF-7 (IC50, nM)
Protocol: From the activity evaluation data of the above-mentioned preliminary screen, it can be seen that the series of taxanes derivatives synthesized in the present invention have activity. Afterward, the compounds are investigated to examine their IC50 values on breast cancer cell line MCF-7. […] Experiments for each compound were independently repeated for three times and multiple holes were used in each experiment. The exposure time of drugs was 72 hours.

[6] = tested on: MDA-MB-436 breast cancer cells; experiment: MTT proliferation inhibition, MDA-MB-436; assay type: cell-based; settings: Homo sapiens, MDA-MB-436, read-out: Proliferation inhibition rate, MDA-MB-436 Breast cancer
From the text: as §1, §2

[7] = tested on: B16 melanoma; experiment: MTT proliferation inhibition, B16; assay type: cell-based; settings: B16, read-out: Proliferation inhibition rate, B16 Melanoma
From the text: as §1, §2

[8] = Caco-2 cell monolayer membrane transport assay (Papp and recovery); assay type: in vitro ADME; settings: human, Caco-2, Caco-2, A-B
From the text: Caco-2 Cell Monolayer Membrane Transport Assay
(§3) Human-derived colorectal adenocarcinoma cell line Caco-2 cell monolayer model was used to study the bidirectional transport of the target compounds from the apical (AP) side to the basolateral (BL) side and from BL side to AP side. HPLC was used for quantitative analysis to calculate transport parameters, apparent permeability coefficient (Papp) and the efflux ratio.

[9] = tested on: HCT 116 colon cancer; experiment: MTT proliferation inhibition, HCT 116; assay type: cell-based; settings: Homo sapiens, HCT-116, read-out: Proliferation inhibition rate, HCT 116 Colon cancer
From the text: as §1, §2

[10] = tested on: K562 leukemia; experiment: MTT proliferation inhibition, K562; assay type: cell-based; settings: Homo sapiens, K562, read-out: Proliferation inhibition rate, K562 Leukemia
From the text: as §1, §2

[11] = tested on: HL-60 leukemia; experiment: MTT proliferation inhibition, HL-60; assay type: cell-based; settings: Homo sapiens, HL-60, read-out: Proliferation inhibition rate, HL60 Leukemia
From the text: as §1, §2

[12] = tested on: LN-18; experiment: MTT proliferation inhibition, LN-18; assay type: cell-based; settings: Homo sapiens, LN-18, read-out: Proliferation inhibition rate, LN-18 Gastric canser
From the text: as §1, §2

[13] = tested on: A549 non-small cell lung cancer; experiment: MTT proliferation inhibition, A549; assay type: cell-based; settings: Homo sapiens, A549, read-out: Proliferation inhibition rate, A549 Non-small cell lung cancer
From the text: as §1, §2

[14] = tested on: A375 melanoma; experiment: MTT proliferation inhibition, A375; assay type: cell-based; settings: Homo sapiens, A-375, read-out: Proliferation inhibition rate, A375 Melanoma
From the text: as §1, §2

[15] = Caco-2 bidirectional transport, efflux ratio; settings: human, Caco-2
From the text: as §3

[16] = tested on: NCI-H460 non-small cell lung cancer; experiment: MTT proliferation inhibition, NCI-H460; assay type: cell-based; settings: Homo sapiens, NCI-H460, read-out: Proliferation inhibition rate, NCI-H460 Non-small cell lung cancer
From the text: as §1, §2

[17] = tested on: HT-29 colon cancer; experiment: MTT proliferation inhibition, HT-29; assay type: cell-based; settings: Homo sapiens, HT-29, read-out: Proliferation inhibition rate, HT29 Colon cancer
From the text: as §1, §2

[18] = tested on: BGC-823 gastric cancer; experiment: MTT proliferation inhibition, BGC-823; assay type: cell-based; settings: Homo sapiens, BGC-823, read-out: Proliferation inhibition rate, BGC-823 Gastric cancer
From the text: as §1, §2

[19] = tested on: A2780 ovarian cancer; experiment: MTT proliferation inhibition, A2780; assay type: cell-based; settings: Homo sapiens, A2780, read-out: Proliferation inhibition rate, A2780 Ovarian cancer
From the text: as §1, §2

[20] = Mean, read-out: Recovery rate in mass, Mean
[21] = Sample-01, read-out: Papp A-B, Sample-01
[22] = Sample-01, read-out: Recovery rate in mass, Sample-01
[23] = Sample-02, read-out: Papp A-B, Sample-02
[24] = Sample-02, read-out: Recovery rate in mass, Sample-02

Row | SMILES | inhibition at 1 µM [1] | inhibition at 1 µM [2] | inhibition at 1 µM [3] | inhibition at 1 µM [4] | IC50 [5] | inhibition at 1 µM [6] | inhibition at 1 µM [7] | recovery [8, 20] | Papp A→B [8, 21] | recovery [8, 22] | Papp A→B [8, 23] | recovery [8, 24] | inhibition at 1 µM [9] | inhibition at 1 µM [10] | inhibition at 1 µM [11] | inhibition at 1 µM [12] | inhibition at 1 µM [13] | inhibition at 1 µM [14] | Papp A→B [15] | Papp B→A [15] | other results
1 | CO[C@H]1C(=O)[C@]2(C)[C@@H](OC)C[C@H]3OC[C@@]3(OC(C)=O)[C@H]2[C@H](OC(=O)c2ccccc2)[C@]23OC(=O)O[C@H]2[C@H](OC(=O)[C@H](O)[C@@H](NC(=O)N(C)C)c2ccccc2)C(C)=C1C3(C)C [PCMI-03] | 99.4% | 95.3% | 85% | 82.6% | 2.89 ± 0.1 nM | 80.1% | 78.2% | 61.7% | 3.45 ×10⁻⁶ cm/s | 65.1% | 3.89 ×10⁻⁶ cm/s | 58.2% | 58.3% | 93.6% | 95.7% | 95.3% | 68.6% | 88.6% | 2.97 ×10⁻⁶ cm/s | 28.6 ×10⁻⁶ cm/s | Papp A→B ([8]; Mean, read-out: Papp A-B, Mean): 3.67 ×10⁻⁶ cm/s; efflux ratio [15]: 9.62; inhibition at 1 µM [16]: 85.3%; inhibition at 1 µM [17]: 88.5%; inhibition at 1 µM [18]: 92.3%; inhibition at 1 µM [19]: 95.1%
2 | CO[C@H]1C(=O)[C@]2(C)[C@@H](OC)C[C@H]3OC[C@@]3(OC(C)=O)[C@H]2[C@H](OC(=O)c2ccccc2)[C@]23OC(=O)O[C@H]2[C@H](OC(=O)[C@H](O)[C@@H](NC(=O)OC(C)(C)C)c2ccccn2)C(C)=C1C3(C)C [PCMI-04] | 98.3% | 101% | 83.9% | 79.2% | 3.4 ± 0.14 nM | 79.4% | 73.2% | 75.9% | 4.46 ×10⁻⁶ cm/s | 85.2% | 2.86 ×10⁻⁶ cm/s | 66.5% | 55% | 91.5% | 95.8% | 91.8% | 66.3% | 82.2% | 3.21 ×10⁻⁶ cm/s | 26.4 ×10⁻⁶ cm/s | efflux ratio [15]: 8.24; inhibition at 1 µM [16]: 81.8%; inhibition at 1 µM [17]: 88.3%; inhibition at 1 µM [18]: 89.8%; inhibition at 1 µM [19]: 94.7%
3 | CO[C@H]1C[C@H]2OC[C@@]2(OC(C)=O)[C@H]2[C@H](OC(=O)c3ccccc3)[C@]34OC(=O)O[C@H]3[C@H](OC(=O)[C@H](O)[C@@H](NC(=O)OC(C)(C)C)c3ccccn3)C(C)=C([C@@H](OC(=O)N(C)C)C(=O)[C@]12C)C4(C)C [PCMI-09] | 101% | 89.8% | 90.3% | 86.2% | 14.31 ± 0.12 nM | 81.3% | 81.7% | 76.5% | 5.78 ×10⁻⁶ cm/s | 70.4% | 3.59 ×10⁻⁶ cm/s | 82.6% | 65.5% | 92.6% | 98.5% | 95% | 75.8% | 96.9% | 3.56 ×10⁻⁶ cm/s | 29 ×10⁻⁶ cm/s | efflux ratio [15]: 8.14; inhibition at 1 µM [16]: 85.8%; inhibition at 1 µM [17]: 87.8%; inhibition at 1 µM [18]: 94.9%; inhibition at 1 µM [19]: 95.6%
4 | CO[C@H]1C(=O)[C@]2(C)[C@@H](OC(=O)N(C)C)C[C@H]3OC[C@@]3(OC(C)=O)[C@H]2[C@H](OC(=O)c2ccccc2)[C@]23OC(=O)O[C@H]2[C@H](OC(=O)[C@H](O)[C@@H](NC(=O)OC(C)(C)C)c2ccccc2)C(C)=C1C3(C)C [PCMI-14] | 99.9% | 88.5% | 89.8% | 85.3% | 15.4 ± 0.16 nM | 80.2% | 80.3% | 91.3% | 3.21 ×10⁻⁶ cm/s | 95% | 2.87 ×10⁻⁶ cm/s | 87.6% | 65.5% | 92.7% | 97.5% | 93.5% | 76.2% | 95.3% | 1.98 ×10⁻⁶ cm/s | 19 ×10⁻⁶ cm/s | Papp A→B ([8]; Mean, read-out: Papp A-B, Mean): 3.04 ×10⁻⁶ cm/s; efflux ratio [15]: 9.58; inhibition at 1 µM [16]: 86.9%; inhibition at 1 µM [17]: 87.3%; inhibition at 1 µM [18]: 95.8%; inhibition at 1 µM [19]: 94.2%
5 | COC(=O)O[C@H]1C[C@H]2OC[C@@]2(OC(C)=O)[C@H]2[C@H](OC(=O)c3ccccc3)[C@]34OC(=O)O[C@H]3[C@H](OC(=O)[C@H](O)[C@@H](NC(=O)OC(C)(C)C)c3ccccc3)C(C)=C([C@@H](OC)C(=O)[C@]12C)C4(C)C [PCMI-17] | 101% | 93.1% | 90.7% | 86.7% | 3.84 ± 0.08 nM | 85.1% | 82.3% | 88.7% | 4.7 ×10⁻⁶ cm/s | 104% | 3.16 ×10⁻⁶ cm/s | 73.9% | 69.6% | 96.5% | 97.3% | 95.9% | 80.3% | 94.9% | 2.4 ×10⁻⁶ cm/s | 5.74 ×10⁻⁶ cm/s | efflux ratio [15]: 2.39; inhibition at 1 µM [16]: 89.2%; inhibition at 1 µM [17]: 88.5%; inhibition at 1 µM [18]: 95.1%; inhibition at 1 µM [19]: 96.6%
